Test results reported in patent publication US11084783B2, “O-alkyl-benzylideneguanidine derivatives and therapeutic use for the treatment of disorders associated with an accumulation of misfolded proteins” (INFLECTIS BIOSCIENCE, priority 2014, dated 2021).

Key:
[1] = tested on: mouse embryonic fibroblasts lipofected with poly I:C; assay: In vitro inflammation/infection model: poly I:C induced mouse embryonic fibroblasts; format: cell-based; details: 25 μM, 6h, IFN-beta ELISA in culture supernatants
Description: Mouse Embryonic Fibroblasts (MEFs) were lipofected with poly I:C and treated with […] compounds of the invention (25 μM) for 6h. After 6h of culture, elF2alpha-phosphorylation (elF2a-P) and PPP1R15A (GADD34) expression was monitored by western blotting, while type-1 Interferon(IFN)-beta production was quantified in culture supernatants by ELISA. Control (nt) and poly I:C/DMSO are respectively negative and positive controls. Poly I:C (polyinosinic:polycytidylic acid or polyinosinic-polycytidylic acid sodium salt) is an immunostimulant used to simulate viral infections. Poly I:C which is structurally similar to double-stranded RNA, is known to interact with toll-like receptor 3 which is expressed in the intracellular compartments of B-cells and dendritic cells. Guanabenz (25 μM) was used as reference inhibitory compound.
MEFs were cultured in DMEM, 10% FCS (HyClone, Perbio), 100 units/ml penicillin, 100 μg/ml streptomycin, 2 mM glutamine, 1× MEM non-essential amino acids and 50 μM 2-mercaptoethanol. MEFS were treated for the indicated time with 10 μg/ml poly I:C (InvivoGen) in combination with lipofectamine 2000 (Invitrogen).
Cells were lysed in 1% Triton X-100, 50 mM Hepes, 10 mM NaCl, 2.5 mM MgCl2, 2 mM EDTA, 10% glycerol, supplemented with Complete Mini Protease Inhibitor Cocktail Tablets (Roche). Protein quantification was performed using the BCA Protein Assay (Pierce). 25-50 μg of Triton X-100-soluble material was loaded on 2%-12% gradient or 8% SDS-PAGE before immunoblotting and chemi-luminescence detection (SuperSignal West Pico Chemi-luminescent Substrate, Pierce). Rabbit polyclonal antibodies recognizing GADD34 (C-19) were from Santa Cruz Biotechnology and anti-elF2alpha[pS^52] were from Invitrogen.
IFN-beta quantification in culture supernatant was performed using the Mouse Interferon Beta ELISA kit (PBL Interferon Source) according to manufacturer instructions.
Normal response of MEFs to poly I:C is characterized by PPP1R15A expression, increase in elF2alpha-P (variable in time and related to the levels PPP1R15A expression) mediated by PKR activation and type-I IFN production (range 500 to 700 pg/ml). Knock out PPP1R15A MEFs are unable to produce this cytokine in response to poly I:C.
The potency of compounds of the invention to inhibit PPP1R15A was evaluated by measuring the increase of elF2alpha phosphorylation, the decrease of PPP1R15A expression due to its own pharmacological inhibition resulting in general protein synthesis inhibition and type-I IFN production.

[2] = tested on: rotenone injured primary mesencephalic rat neurons; assay: In vitro Parkinson's disease model: rotenone injured primary mesencephalic rat neurons; format: cell-based; details: rotenone 10 nM, 24 hours; total number of TH positive neurons
Description: Rat dopaminergic neurons were cultured as described by Schinelli et al., (1988 J. Neurochem 50 pp1900-07) and Visanji et al., (2008 FASEB J. 22(7) pp2488-97). Briefly, the midbrains obtained from 15-day old rat embryos (Janvier Labs, France) were dissected under a microscope. The embryonic midbrains were removed and placed in ice-cold medium of Leibovitz (L15, Pan Biotech, Batch: 9310614) containing 2% of Penicillin-Streptomycin (PS, Pan Biotech, Batch: 1451013) and 1% of bovine serum albumin (BSA, Pan Biotech, Batch: h140603). The ventral portion of the mesencephalic flexure, a region of the developing brain rich in dopaminergic neurons, was used for the cell preparations.
The midbrains were dissociated by trypsinisation for 20 min at 37° C. (Trypsin 0.05% EDTA 0.02%, PanBiotech, Batch: 5890314). The reaction was stopped by the addition of Dulbecco's modified Eagle's medium (DMEM, PanBiotech, Batch: 1300714) containing DNAase I grade II (0.1 mg/ml, PanBiotech, Batch: H140508) and 10% of foetal calf serum (FCS, Gibco, Batch: 41Q7218K). Cells were then mechanically dissociated by 3 passages through a 10 ml pipette. Cells were then centrifuged at 180×g for 10 min at +4° C. on a layer of BSA (3.5%) in L15 medium. The supernatant was discarded and the cell pellets were re-suspended in a defined culture medium consisting of Neurobasal (Invitrogen, Batch: 1636133) supplemented with B27 (2%, Invitrogen, Batch: 1660670), L-glutamine (2 mM, PanBiotech, Batch: 8150713) and 2% of PS solution and 10 ng/ml of Brain-derived neurotrophic factor (BDNF, PanBiotech, Batch: H140108) and 1 ng/ml of Glial-Derived Neurotrophic Factor (GDNF, Pan Biotech, Batch: H130917). Viable cells were counted in a Neubauer cytometer using the trypan blue exclusion test. The cells were seeded at a density of 40 000 cells/well in 96 well-plates pre-coated with poly-L-lysine (Corning Biocoat, Batch: 6614022) and maintained in a humidified incubator at 37° C. in 5% CO2/95% air atmosphere. Half of the medium was changed every 2 days with fresh medium.
On day 6 of culture, the medium was removed and fresh medium was added, without or with rotenone (Sigma, Batch: 021M2227V) at 10 nM diluted in control medium, 3 wells per condition were assessed. […]
The immunolabeled cultures were automatically examined with ImageXpress (Molecular device USA). For each condition, 20 automatically fields per well (representing ˜80% of the total surface of the well) from 3 wells were analyzed. The total number of TH neurons was automatically analyzed using Custom module editor (Molecular Devices, USA). […] All values were expressed as mean +/−SEM (s.e. mean) of the 1 culture (n=3 wells per condition per culture).

SMILES	prevention of type-I IFN production (FIG. 9) [1]	protection of rotenone injured primary mesencephalic rat neurons (FIG. 3) [2]
CCONC(=N)N/N=C/c1c(F)cccc1Cl [Compound 17, 2-(2-chloro-6-fluorobenzylidene)-N-ethoxyhydrazinecarboximidamide]	prevent type-I IFN production	dose dependent protection
CCO/N=C(\N)N/N=C/c1ccccc1Cl [Compound 10, 2-(2-chlorobenzylidene)-N′-ethoxyhydrazinecarboximidamide]	prevent type-I IFN production	
CCONC(=N)N/N=C/c1c(Cl)cccc1Cl [Compound 11, 2-(2,6-dichlorobenzylidene)-N-ethoxyhydrazinecarboximidamide]	prevent type-I IFN production	dose dependent protection
CCCONC(=N)N/N=C/c1ccccc1Cl [Compound 12, 2-(2-chlorobenzylidene)-N-propoxyhydrazinecarboximidamide]	prevent type-I IFN production	dose dependent protection
